{
  "source": "ChEMBL document CHEMBL4190257",
  "about": "“Discovery of phenylsulfonyl acetic acid derivatives with improved efficacy and safety as potent free fatty acid receptor 1 agonists for the treatment of type 2 diabetes” (Eur J Med Chem, 2017)",
  "key": {"[1]": {"system": "Mus musculus", "assay": "Renal toxicity in ICR mouse assessed as serum creatinine level at 30 mg/kg, dosed daily via oral gavage for 30 days (reference value: 40.9 +/- 2.6 umol/L)", "assay_type": "organism-based", "conditions": "in vivo, 720 h"}, "[2]": {"system": "Rattus norvegicus", "assay": "Antidiabetic activity in po dosed Sprague-Dawley rat assessed as reduction in plasma glucose excursion administered as single dose followed by subsequent glucose challenge at 60 mins post administration measured up to 120 mins post dose by OGTT method", "assay_type": "functional, organism-based"}, "[3]": {"assay": "Half life in fasted Sprague-Dawley rat at 10 mg/kg, po administered as single dose measured up to 24 hrs post dose by LC-PDA-MS/MS analysis", "assay_type": "ADME, organism-based", "conditions": "in vivo"}, "[4]": {"biological_target": "T1, Free fatty acid receptor 1 (Homo sapiens, UniProt O14842)", "T1 sequence (O14842 whole entry)": "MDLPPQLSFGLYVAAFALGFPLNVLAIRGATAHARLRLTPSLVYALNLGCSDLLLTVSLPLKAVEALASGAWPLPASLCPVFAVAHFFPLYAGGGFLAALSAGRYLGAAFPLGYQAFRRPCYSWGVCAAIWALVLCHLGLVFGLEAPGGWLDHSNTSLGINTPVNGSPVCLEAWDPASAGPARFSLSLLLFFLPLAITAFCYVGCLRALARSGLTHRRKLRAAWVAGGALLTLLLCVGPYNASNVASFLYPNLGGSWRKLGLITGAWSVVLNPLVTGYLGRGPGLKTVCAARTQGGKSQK", "assay": "Agonist activity at human FFA1 receptor expressed in CHO cells assessed as increase in intracellular calcium flux at 10 uM by Fluo 4AM dye-based FLIPR assay relative to TAK-875", "assay_type": "functional, cell-based"}, "[5]": {"assay": "Drug metabolism in Sprague-Dawley rat plasma assessed as cytochrome P450-mediated 2'-chlorobiphenyl-3-carboxylic acid formation at 10 mg/kg, po measured up to 24 hrs post dose by LC-PDA-MS/MS analysis", "assay_type": "ADME, organism-based", "conditions": "in vivo"}, "[6]": {"biological_target": "T1, Free fatty acid receptor 1", "assay": "Agonist activity at human FFA1 receptor expressed in CHO cells assessed as increase in intracellular calcium flux by Fluo 4AM dye-based FLIPR assay", "assay_type": "functional, cell-based"}, "[7]": {"assay": "Drug metabolism in Sprague-Dawley rat plasma assessed as beta-oxidation metabolite formation at 10 mg/kg, po measured up to 24 hrs post dose by LC-PDA-MS/MS analysis", "assay_type": "ADME, organism-based", "conditions": "in vivo"}, "[8]": {"assay": "Clearance in fasted Sprague-Dawley rat at 10 mg/kg, po administered as single dose measured up to 24 hrs post dose by LC-PDA-MS/MS analysis", "assay_type": "ADME, organism-based", "conditions": "in vivo"}, "[9]": {"assay": "AUC (0 to 24 hrs) in fasted Sprague-Dawley rat at 10 mg/kg, po administered as single dose measured up to 24 hrs post dose by LC-PDA-MS/MS analysis", "assay_type": "ADME, organism-based", "parameters": "time < 24 hr, dose 10 mg/kg, route oral", "conditions": "in vivo"}, "[10]": {"system": "Mus musculus", "assay": "Hepatotoxicity in ICR mouse assessed as serum AST level at 30 mg/kg, dosed daily via oral gavage for 30 days (reference value: 135.6 +/- 15.2 IU/L)", "assay_type": "toxicity, organism-based", "conditions": "in vivo, 720 h"}, "[11]": {"system": "Mus musculus", "assay": "Antihyperglycemic activity in high fat diet fed/streptozotocin-induced type 2 diabetic C57BL/6 mouse model assessed as reduction in plasma glucose AUC (0 to 120 mins) at 20 mg/kg, po administered as single dose followed by subsequent glucose challenge at 60 mins post administration by OGTT method", "assay_type": "functional, organism-based"}, "[12]": {"system": "Mus musculus", "assay": "Hepatotoxicity in ICR mouse assessed as serum TBIL level at 30 mg/kg, dosed daily via oral gavage for 30 days (reference value: 4.3 +/- 1.3 IU/L)", "assay_type": "toxicity, organism-based", "conditions": "in vivo, 720 h"}, "[13]": {"system": "HepG2", "assay": "Apoptotic cytotoxicity in human HepG2 cells assessed as caspase-3/7 activity at 30 uM after 24 hrs by caspase-glo-3/7 assay relative to staurosporine", "assay_type": "cell-based", "conditions": "hepg2, 24 h"}, "[14]": {"assay": "Drug metabolism in Sprague-Dawley rat plasma assessed as (2S,3R,4S,5S,6R)-3,4,5-trihydroxy-6-(hydroxymethyl)tetrahydro-2H-pyran-2-yl 2-(4-((2'-chlorobiphenyl-3-yl)methoxy)phenylsulfonyl)acetate formation at 10 mg/kg, po measured up to 24 hrs post dose by LC-PDA-MS/MS analysis", "assay_type": "ADME, organism-based", "conditions": "in vivo"}, "[15]": {"assay": "Cmax in fasted Sprague-Dawley rat at 10 mg/kg, po administered as single dose measured up to 24 hrs post dose by LC-PDA-MS/MS analysis", "assay_type": "ADME, organism-based", "parameters": "dose 10 mg/kg, route oral", "conditions": "in vivo"}, "[16]": {"assay": "Octanol/phosphate buffer distribution coefficient, log D of the compound at 100 uM at pH 7.4 after 24 hrs by shake flask method", "assay_type": "physicochemical"}, "[17]": {"assay": "Drug metabolism in Sprague-Dawley rat plasma assessed as 2-(2-(4-((2'-chlorobiphenyl-3-yl)methoxy)phenylsulfonyl)acetamido)ethanesulfonic acid formation at 10 mg/kg, po measured up to 24 hrs post dose by LC-PDA-MS/MS analysis", "assay_type": "ADME, organism-based", "conditions": "in vivo"}, "[18]": {"system": "Rattus norvegicus", "assay": "Hypoglycemic effect in fasting Sprague-Dawley rat at 30 mg/kg, po measured up to 180 mins post dose", "assay_type": "ADME, organism-based", "conditions": "in vivo, 3 h"}, "[19]": {"system": "Mus musculus", "assay": "Renal toxicity in ICR mouse assessed as BUN level at 30 mg/kg, dosed daily via oral gavage for 30 days (reference value: 7.4 +/- 1.6 mmol/L)", "assay_type": "organism-based", "conditions": "in vivo, 720 h"}, "[20]": {"system": "Rattus norvegicus", "assay": "Antidiabetic activity in po dosed Sprague-Dawley rat assessed as increase in insulin secretion administered as single dose followed by subsequent glucose challenge at 60 mins post administration measured up to 120 mins post dose by ELISA", "assay_type": "functional, organism-based"}, "[21]": {"system": "Mus musculus", "assay": "Hepatotoxicity in ICR mouse assessed as serum ALT level at 30 mg/kg, dosed daily via oral gavage for 30 days (reference value: 34.7 +/- 5.6 IU/L)", "assay_type": "toxicity, organism-based", "conditions": "in vivo, 720 h"}, "[22]": {"system": "Rattus norvegicus", "assay": "Antidiabetic activity in po dosed Sprague-Dawley rat assessed as increase in blood insulin AUC (0 to 120 mins) administered as single dose followed by subsequent glucose challenge at 60 mins post administration by ELISA method", "assay_type": "functional"}, "[23]": {"system": "Rattus norvegicus", "assay": "Antidiabetic activity in po dosed Sprague-Dawley rat assessed as reduction in blood glucose AUC (0 to 120 mins) administered as single dose followed by subsequent glucose challenge at 60 mins post administration by OGTT method", "assay_type": "functional"}},
  "note": "Active and inactive are the calls of the source. No cut-off for these calls is given here.",
  "data": [
    {"smiles": "O=C(O)CS(=O)(=O)c1ccc(OCc2cccc(-c3ccccc3Cl)c2)cc1", "values": [
      {"measurement": "Activity", "setting": "[1]", "result": 41.4, "unit": "µmol/L"},
      {"measurement": "Activity", "setting": "[2]", "result": "Dose-dependent effect"},
      {"measurement": "half-life", "setting": "[3]", "result": 334, "unit": "min"},
      {"measurement": "Efficacy", "setting": "[4]", "result": 115, "unit": "%"},
      {"measurement": "Drug metabolism", "setting": "[5]", "result": "Metabolite_Detected"},
      {"measurement": "EC50", "setting": "[6]", "result": 28.8, "unit": "nM"},
      {"measurement": "Drug metabolism", "setting": "[7]", "result": "Metabolite_Detected"},
      {"measurement": "CL/F", "setting": "[8]", "result": 2.57, "unit": "mL/min/kg"},
      {"measurement": "AUC(0-t) at 24 h", "setting": "[9]", "result": 30200, "unit": "ng·h/mL"},
      {"measurement": "Activity", "setting": "[10]", "result": 128.2, "unit": "IU/L"},
      {"measurement": "Activity", "setting": "[11]", "result": "Active"},
      {"measurement": "Activity", "setting": "[12]", "result": 4.1, "unit": "IU/L"},
      {"measurement": "Activity", "setting": "[13]", "result": -1.6, "unit": "%"},
      {"measurement": "Drug metabolism", "setting": "[14]", "result": "Metabolite_Detected"},
      {"measurement": "Cmax", "setting": "[15]", "result": 2560, "unit": "ng/mL"},
      {"measurement": "logD at 24 h, 100 µM", "setting": "[16]", "result": 2.47},
      {"measurement": "Drug metabolism", "setting": "[17]", "result": "Metabolite_Detected"},
      {"measurement": "Activity", "setting": "[18]", "result": "Non-Toxic"},
      {"measurement": "Activity", "setting": "[19]", "result": 7.9, "unit": "mmol/L"},
      {"measurement": "Activity", "setting": "[20]", "result": "Dose-dependent effect"},
      {"measurement": "Activity", "setting": "[21]", "result": 35.4, "unit": "IU/L"},
      {"measurement": "MEC", "setting": "[22]", "result": 3, "unit": "mg/kg"},
      {"measurement": "MEC", "setting": "[23]", "result": 3, "unit": "mg/kg"}
    ]}
  ]
}
